These results are taken from US12595279B2, “Modified nucleoside and synthetic methods thereof” (STEMIRNA THERAPEUTICS CO., LTD., priority 2019, dated 2026).

Molecules are shown by their SMILES.

Assay [1] deals with mice dendritic cells (D.2.4 cells). The assay is described as follows: Expression of 100% cytidine-modified luciferase (FLuc) mRNA, LPP-wrapped, in dendritic cells (luciferase activity, RLU). It counts as cell-based. To be noted: FIG. 2; for difference of luciferase expression versus the control and m^4C (significance analysis on variance): 100% of cytidine replaced, control = cytidine without modification, P≤0.01, 24 h after transfection. From the text: Obtaining of the mRNA of the modified luciferase: DNA sequence of Luc may be in vitro transcribed to mRNA by means of a transcriptase under a conventional reagent condition. During the process of transcription, modified mRNA in varying proportions were obtained according to a ratio of the modified C (cytidine) and non-modified C, where the modified mRNA may contain U-modified mRNA in varying proportions. The sequence was in vitro synthesized into the following modified mRMA, thus forming new modified luciferase. In the above sequence (SEQ NO:1), cytidine was replaced by the modified C* in the present invention; and the following modified C* denotes the expression of the mRNA of 5 monocytidine-modified mRNA having a modification ratio of 100% (namely, all the C were replaced into the following 5 different C* modifications, m^4C (N4-methylcytidine), and m^4Cm (N^4, 2′-O-dimethylcytidine), specifically as shown in Table 1.
1.2.1: Preparation of a phospholipid mixed liquor: phospholipid:DOPE:mPEG2000-DSPE=49:49:2 were dissolved into an ethanol solution. DOPE was purchased from Avanti, mPEG2000-DSPE was purchased from cordenpharma, and PBS was purchased from Invitrogen.
1.2.2: Preparation of mRNA: 1 mL mRNA (mRNA having a concentration of 0.2 mg/mL and total mass of 0.2 mg as shown in Table 2) in each treatment group was respectively sucked up by a BD injector.
1.2.3: Preparation of phospholipid/mRNA: […] and 3 mL phospholipid solution (having a concentration of 12 mg/mL) were respectively sucked up by a BD injector and inserted into a micro-fluidic chip (the microfluidics herein should be a small-sized equipment capable of producing package for nanoparticles); the setup parameters: volume: 9.0 mL; and flow rate ratio: 3:1, total flow rate: 1 mL/min; temperature: 37.0° C., initial amount: 0.35 mL; ending amount: 0.10 mL, thus a phospholipid/mRNA solution was obtained, namely, mRNA particles wrapped by phospholipid and a phospholipid mixed solution were obtained.
Thereby, the wrapped mRNA carrier in each treatment group was obtained.
Experiment reagent: (1) water was added to a harvest buffer (25 ml): 1.25 ml 1 M Tris-HCl(pH7.5), 25 μl 1 M DTT, 250 μl 10% Triton X-100 to 25 ml for storage at 4° C. (2) water was added to an ATP buffer (10 ml): 1.25 ml 1 M Tris-HCl(pH7.5), 250 μl 1 M MgCl2, 24 mg ATP to 10 ml for storage at […] (3) luciferin buffer (36 ml): 10 mg luciferin, 36 ml 5 mM KH2PO4 (pH7.8) was performed for storage at 4° C. (4) PBS: […], 2.68 mMKCl, 10 mM Na2HPO4, 1.76 mM KH2PO4 was performed for storage at 4° C. […]
1.3.6: same volume of cell lysis buffer (100 μl) was successively taken and put to the microcentrifuge tubes in step 5, and mixed evenly immediately, and […] were read on a Luminometer. […]

Assay [2] relates to dendritic cells. The assay is described as follows: Influence of different modification ratios of cytidine on luciferase mRNA expression. The class given is cell-based, mice. Conditions: for difference of expression at the best modification ratio versus other modification ratios (variance analysis): best ratio: invention 1 80%-100%, invention 4 20%, invention 2 40%, invention 3 5%; for trend of expression with the increase of the modification ratio: cytidine replaced at 0.5% to 100%; for trend of expression with the increase of the modification ratio / modification ratio with the maximum (optimal) expression quantity: FIGS. 4-7; for modification ratio with the maximum (optimal) expression quantity / modification ratio at which the expression quantity is relatively high: luciferase mRNA, part of the cytidine replaced; for modification ratio at which the expression quantity is relatively high: FIGS. 5-7. The method, then:
mRNA of the luciferase in Example 1 was set as an example; a portion of cytidine was replaced with the compounds of the modified cytidine in the present invention having a ratio of 0.5%, 5%, 10%, 20%, 30%, 40%, 50%, 70%, 80% and 90%; and the specific replacement method was as follows: transcription was performed by a transcriptase of in vitro luciferase DNA with the supply of AUCG raw materials and according to a conventional method, where the synthesis method should be controlled and replaced, and then a portion of cytidine in mRNA was replaced according to the above ratio. The influence of the replacement in different ratios on the expression of mRNA was surveyed.

Assay [3] deals with dendritic cells. The assay is described as follows: Influence of a 120A Poly(A) tail on the 3′ terminal on expression of modified luciferase mRNA in dendritic cells. It counts as cell-based, mice. Conditions: 120A tail; luciferase mRNA 100% modified; compared with FIG. 2 (FIG. 3). The protocol:
120A was added on a 3′ terminal as a tail, so as to survey the influence of adding Poly(A) on the 3′ terminal on the translation effect, as well as on the expression of the luciferase 100% modified by the inventions 1-4 and control group. The influence on enzyme expression was measured according to the packaging method and cell infection method in Example 1. It can be obviously seen through the comparison of FIG. 2 that the expression was increased both to the modified or non-modified mRNA after adding a Ploy (A) structure on the 3′ terminal.

For `Cc1cn(C2CC(O)C(COP(=O)([O-])OP(=O)([O-])OP(=O)([O-])[O-])O2)c(=O)nc1N=C(N)N.[K+].[K+].[K+].[K+]` (stereo not shown) [invention 2], the “difference of luciferase expression versus m^4Cm-modified mRNA” value in assay [1] (100% modification, comparator m^4Cm (N^4,2′-O-dimethylcytidine)) is “no significant difference”. Moreover, the “difference of luciferase expression versus the control and m^4C (significance analysis on variance)” value (“difference … (significance analysis on variance)” for short) in assay [1] is on record as “highly significant difference”. In the assay with dendritic cells [2], the “difference of expression at the best modification ratio versus other modification ratios (variance analysis)” value is “significant or highly significant differences”, the “trend of expression with the increase of the modification ratio” value is “gradually increases”, the “modification ratio with the maximum (optimal) expression quantity” value (shortened to “modification ratio with the maximum”) worked out at 40% and the “modification ratio at which the expression quantity is relatively high” value is 20%-40%.
`Cc1c(O)c(N=C(N)N)nc(=O)n1C1OC(COP(=O)([O-])OP(=O)([O-])OP(=O)([O-])[O-])C(O)C1O.[K+].[K+].[K+].[K+]` (stereo not shown) [invention 4]: the “difference … (significance analysis on variance)” value in assay [1] was “highly significant difference”. In addition, in the assay with dendritic cells [2], the “difference of expression at the best modification ratio versus other modification ratios (variance analysis)” value is “significant or highly significant differences”, the “trend of expression with the increase of the modification ratio” value is on record as “gradually increases”, the “modification ratio with the maximum” value is on record as 20% and the “modification ratio at which the expression quantity is relatively high” value is listed as 20%-40%.
For `NC(N)=Nc1ccn(C2OC(COP(=O)([O-])OP(=O)([O-])OP(=O)([O-])[O-])C(O)C2O)c(=O)n1.[K+].[K+].[K+].[K+]` (stereo not shown) [invention 1], the “difference … (significance analysis on variance)” value in assay [1] was “highly significant difference”. Besides, the “change of expression after adding a Poly(A) structure on the 3′ terminal” value in the assay with dendritic cells [3] is reported as “comparatively obvious”. Moreover, in the assay with dendritic cells [2], the “difference of expression at the best modification ratio versus other modification ratios (variance analysis)” value was “significant difference”, the “trend of expression with the increase of the modification ratio” value was “increased” and the “modification ratio with the maximum” value is 80%-100%.
